Source: patent US20020026051A1, “Dithiepino [6,5-b]pyridines, and related compositions and methods” (priority 1999, published 2002)

What follows are molecules tested against T1, calcium channel (Oryctolagus cuniculus, UniProt P15381) (assay: Assay for Inhibition of Nitrendipine Binding (3H-nitrendipine, heart membranes)). Conditions: 3H-nitrendipine displacement, rabbit heart membranes; Tables 1-5.
T1 construct: from tissue; host or cells: rabbit heart membrane preparation
Procedure: Female, New Zealand white rabbits (1-2 kg) are sacrificed by cervical dislocation, and the heart is immediately removed, cleaned and chopped into small pieces. The tissue is homogenized in 5× times volume of 0.05M Hepes buffer, pH 7.4. The homogenate is centrifuged at 4000 g for 10 minutes, and the supernatant is re-centrifuged at 42,000×g for 90 minutes. The resulting membrane pellet is resuspended (0.7 ml/g weight) in 0.05M Hepes, pH 7.4 and stored at […] until used. Each tube of the binding assay contains ^3H-nitrendipine (0.05-0.50 nM), buffer, membranes (0.10 ml), and test compound in a total volume of 1.0 ml. After 90 minutes at 4° C., the bound nitrendipine is separated from the unbound by filtration on Whatman GF/C filters. After rinsing, the filters are dried and counted in a liquid scintillation counter.
Non-specific binding of ^3H-nitrendipine (that amount bound in the presence of excess unlabelled nitrendipine) is subtracted from the total bound to obtain specifically bound radiolabeled nitrendipine. The amount of specifically bound nitrendipine in the presence of a test compound is compared to that amount bound in the absence of a compound. A percent displacement (or inhibition) can then be calculated.

T1 sequence (P15381 whole entry, other chains not shown): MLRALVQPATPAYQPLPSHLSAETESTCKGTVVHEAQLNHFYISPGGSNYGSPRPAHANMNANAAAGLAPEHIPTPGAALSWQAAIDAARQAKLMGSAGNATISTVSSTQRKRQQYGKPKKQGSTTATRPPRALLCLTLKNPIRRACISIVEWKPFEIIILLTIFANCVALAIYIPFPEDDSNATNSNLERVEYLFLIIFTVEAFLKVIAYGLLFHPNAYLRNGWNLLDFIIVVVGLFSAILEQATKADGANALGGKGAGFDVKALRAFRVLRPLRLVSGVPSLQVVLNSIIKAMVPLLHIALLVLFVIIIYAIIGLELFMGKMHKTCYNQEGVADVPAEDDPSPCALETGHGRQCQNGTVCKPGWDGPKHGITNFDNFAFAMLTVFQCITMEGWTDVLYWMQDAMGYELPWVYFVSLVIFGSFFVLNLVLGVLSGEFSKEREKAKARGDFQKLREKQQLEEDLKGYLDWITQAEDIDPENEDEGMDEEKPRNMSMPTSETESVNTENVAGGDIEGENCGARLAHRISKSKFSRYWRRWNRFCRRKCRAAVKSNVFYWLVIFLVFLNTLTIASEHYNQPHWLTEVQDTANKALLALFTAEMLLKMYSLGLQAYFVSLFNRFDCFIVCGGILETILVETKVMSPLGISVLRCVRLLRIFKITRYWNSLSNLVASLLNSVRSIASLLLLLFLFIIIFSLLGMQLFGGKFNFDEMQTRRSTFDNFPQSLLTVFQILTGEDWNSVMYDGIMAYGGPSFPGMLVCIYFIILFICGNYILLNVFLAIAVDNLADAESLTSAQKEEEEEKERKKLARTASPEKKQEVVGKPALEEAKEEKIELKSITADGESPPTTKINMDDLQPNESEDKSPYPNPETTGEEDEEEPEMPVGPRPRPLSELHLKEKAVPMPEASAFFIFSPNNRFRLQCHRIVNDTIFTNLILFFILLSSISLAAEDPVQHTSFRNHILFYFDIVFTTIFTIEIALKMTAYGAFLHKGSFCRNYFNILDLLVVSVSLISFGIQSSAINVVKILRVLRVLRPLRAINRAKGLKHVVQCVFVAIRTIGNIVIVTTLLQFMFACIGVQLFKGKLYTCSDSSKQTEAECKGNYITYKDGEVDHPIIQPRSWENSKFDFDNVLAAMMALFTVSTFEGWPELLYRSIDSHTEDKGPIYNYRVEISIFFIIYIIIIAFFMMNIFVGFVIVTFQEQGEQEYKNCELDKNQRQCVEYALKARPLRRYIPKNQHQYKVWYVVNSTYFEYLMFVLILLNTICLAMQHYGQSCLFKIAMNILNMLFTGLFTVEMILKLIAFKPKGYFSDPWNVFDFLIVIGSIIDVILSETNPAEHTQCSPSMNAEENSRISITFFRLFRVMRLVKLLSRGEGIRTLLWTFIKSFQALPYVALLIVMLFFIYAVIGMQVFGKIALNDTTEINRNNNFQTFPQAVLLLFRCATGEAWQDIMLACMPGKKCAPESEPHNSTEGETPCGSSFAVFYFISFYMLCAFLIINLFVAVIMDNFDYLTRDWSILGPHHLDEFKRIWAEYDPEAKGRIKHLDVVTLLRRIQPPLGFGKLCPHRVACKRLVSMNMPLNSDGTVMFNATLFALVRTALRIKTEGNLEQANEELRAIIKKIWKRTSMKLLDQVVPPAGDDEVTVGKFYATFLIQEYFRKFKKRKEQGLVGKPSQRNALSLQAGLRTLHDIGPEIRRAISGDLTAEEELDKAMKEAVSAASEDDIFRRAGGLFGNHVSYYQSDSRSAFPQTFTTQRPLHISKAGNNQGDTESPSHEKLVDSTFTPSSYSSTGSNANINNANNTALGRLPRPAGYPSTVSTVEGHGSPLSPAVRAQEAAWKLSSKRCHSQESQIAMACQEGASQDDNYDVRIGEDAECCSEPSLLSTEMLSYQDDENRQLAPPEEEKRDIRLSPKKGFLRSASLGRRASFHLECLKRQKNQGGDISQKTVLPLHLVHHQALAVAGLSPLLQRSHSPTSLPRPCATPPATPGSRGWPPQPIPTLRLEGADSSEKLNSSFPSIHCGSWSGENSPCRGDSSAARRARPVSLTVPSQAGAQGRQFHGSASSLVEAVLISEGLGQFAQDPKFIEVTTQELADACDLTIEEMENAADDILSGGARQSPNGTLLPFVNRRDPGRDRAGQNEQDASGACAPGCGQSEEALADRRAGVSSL
T1 sequence (P13806 27-960 partner limits assumed, other chains not shown): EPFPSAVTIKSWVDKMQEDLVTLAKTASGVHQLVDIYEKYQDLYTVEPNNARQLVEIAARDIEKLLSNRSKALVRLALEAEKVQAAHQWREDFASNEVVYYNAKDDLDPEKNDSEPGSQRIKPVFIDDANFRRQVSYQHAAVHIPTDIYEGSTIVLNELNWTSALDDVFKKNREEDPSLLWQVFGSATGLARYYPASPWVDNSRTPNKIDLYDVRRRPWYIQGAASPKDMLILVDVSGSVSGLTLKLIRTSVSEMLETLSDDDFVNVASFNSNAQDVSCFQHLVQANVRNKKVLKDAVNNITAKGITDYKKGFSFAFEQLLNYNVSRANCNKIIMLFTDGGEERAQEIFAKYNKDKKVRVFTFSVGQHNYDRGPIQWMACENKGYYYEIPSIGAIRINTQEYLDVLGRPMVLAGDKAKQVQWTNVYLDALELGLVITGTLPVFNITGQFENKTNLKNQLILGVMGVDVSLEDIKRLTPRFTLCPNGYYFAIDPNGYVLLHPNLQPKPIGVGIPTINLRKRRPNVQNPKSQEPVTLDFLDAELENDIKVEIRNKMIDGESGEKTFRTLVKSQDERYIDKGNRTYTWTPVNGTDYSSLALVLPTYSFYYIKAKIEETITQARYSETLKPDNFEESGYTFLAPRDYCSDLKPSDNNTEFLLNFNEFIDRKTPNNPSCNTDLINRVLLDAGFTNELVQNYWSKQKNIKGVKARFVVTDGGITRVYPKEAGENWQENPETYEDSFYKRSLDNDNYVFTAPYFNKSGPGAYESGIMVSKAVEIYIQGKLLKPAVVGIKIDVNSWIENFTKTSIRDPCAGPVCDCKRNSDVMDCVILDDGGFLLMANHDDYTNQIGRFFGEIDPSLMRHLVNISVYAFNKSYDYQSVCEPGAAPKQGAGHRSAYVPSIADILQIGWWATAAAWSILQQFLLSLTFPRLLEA
T1 sequence (P13806 961-1106 partner limits assumed, other chains not shown): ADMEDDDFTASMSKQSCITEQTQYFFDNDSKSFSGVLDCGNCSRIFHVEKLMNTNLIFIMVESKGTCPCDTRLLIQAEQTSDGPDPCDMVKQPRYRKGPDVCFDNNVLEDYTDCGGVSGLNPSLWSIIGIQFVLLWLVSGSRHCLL

First: CC1=C(C(=O)OCCN(C)Cc2ccccc2)[C@@H](c2c(F)cccc2Cl)C2=C(CS(=O)(=O)CCS2(=O)=O)N1 (single isomer, unassigned) [Compound 2, 5H-1,4-Dithiepino[6,5-b]pyridine-8-carboxylic acid, 9-(2-chloro-6-fluorophenyl)-2,3,6,9-tetrahydro-7-methyl-2-[methyl(phenylmethyl)amino]ethyl ester 1,1,4,4-tetraoxide]
Second: CC1=C(C(=O)OCCN(C)Cc2ccccc2)C(c2c(F)cccc2Cl)C2=C(CS(=O)(=O)CCS2(=O)=O)N1 (stereo not shown) [Compound 1, 5H-1,4-Dithiepino[6,5-b]pyridine-8-carboxylic acid, 9-(2-chloro-6-fluorophenyl)-2,3,6,9-tetrahydro-7-methyl-2-[methyl(phenylmethyl)amino]ethyl ester 1,1,4,4-tetraoxide]
The IC50 of the first is 1.7-fold lower: 43 nM for the first, 74 nM for the second. The first is the more potent here.

Same assay, conditions: 3H-nitrendipine displacement, rabbit heart membranes; Tables 6-7

`CC1=C(C(=O)OCCOC(=O)C2CCc3ccccc3C2)C(c2c(F)cccc2Cl)C2=C(CS(=O)(=O)CCS2(=O)=O)N1` (stereo not shown) [Compound 42, 7-methyl-9-[2-fluoro-6-chlorophenyl]-2,3,6 9-tetrahydo-1,1,4,4-tetraoxide 5H-1,4-Dithiepino[6,5-b]pyridine-8-carboxlic acid 2-[1,2,3,4-tetrahydo-2-napthoyl]oxyethyl ester] and `CC1=C(C(=O)OCCOC(=O)c2ccccc2)C(c2c(F)cccc2Cl)C2=C(CS(=O)(=O)CCS2(=O)=O)N1` (stereo not shown) [Compound 51] are within 1.5-fold of each other in IC50: 44 nM for the first, 62 nM for the second.

`CC1=C(C(=O)OCCOC(=O)c2ccc3ccccc3c2)C(c2c(F)cccc2Cl)C2=C(CS(=O)(=O)CCS2(=O)=O)N1` (stereo not shown) [Compound 46] and `CC1=C(C(=O)OCCOC(=O)c2ccc(C#N)cc2)C(c2c(F)cccc2Cl)C2=C(CS(=O)(=O)CCS2(=O)=O)N1` (stereo not shown) [Compound 48] are within 1.5-fold of each other in IC50: 50 nM for the first, 55 nM for the second.

Going from `CC1=C(C(=O)OCCOC(=O)CN(C)Cc2ccccc2)C(c2c(F)cccc2Cl)C2=C(CS(=O)(=O)CCS2(=O)=O)N1` (stereo not shown) [Compound 47] to `CC1=C(C(=O)OCC(=O)OCCN(C)Cc2ccccc2)C(c2c(F)cccc2Cl)C2=C(CS(=O)(=O)CCS2(=O)=O)N1` (stereo not shown) [Compound 74, 7-methyl-9-[2-fluoro-6-chlorophenyl]-2,3,6,9-tetrahydro-1,1,4,4-tetraoxide 5H-1,4-Dithiepino[6,5-b]pyridine-8-carboxylic acid carboxy-2-(1-N-methylbenzylamine)ethyl ester], the IC50 rises from 50 nM to 420 nM (8.4-fold).

First: CC1=C(C(=O)OCCCCOC(=O)c2ccccc2)C(c2c(F)cccc2Cl)C2=C(CS(=O)(=O)CCS2(=O)=O)N1 (stereo not shown) [Compound 49]
Second: CC1=C(C(=O)OCCNC(=O)c2ccccc2)C(c2c(F)cccc2Cl)C2=C(CS(=O)(=O)CCS2(=O)=O)N1 (stereo not shown) [Compound 87]
The IC50 of the first is 40-fold lower: 57 nM for the first, 2260 nM for the second.

Compared with `CC1=C(C(=O)OCCOC(=O)C2CCCCC2)C(c2c(F)cccc2Cl)C2=C(CS(=O)(=O)CCS2(=O)=O)N1` (stereo not shown) [Compound 55], `CC(=O)OCCOC(=O)C1=C(C)NC2=C(C1c1c(F)cccc1Cl)S(=O)(=O)CCS(=O)(=O)C2` (stereo not shown) [Compound 80] is 9-fold higher in IC50: 100 nM for the first, 898 nM for the second.

`CC1=C(C(=O)OCCOC(=O)C(C)C)C(c2c(F)cccc2Cl)C2=C(CS(=O)(=O)CCS2(=O)=O)N1` (stereo not shown) [Compound 57] and `CC1=C(C(=O)OCCCOC(=O)C(C)C)C(c2c(F)cccc2Cl)C2=C(CS(=O)(=O)CCS2(=O)=O)N1` (stereo not shown) [Compound 62] are within 1.5-fold of each other in IC50: 143 nM for the first, 176 nM for the second.

`CC1=C(C(=O)OCCOC(=O)CN(C)C(=O)c2ccccc2)C(c2c(F)cccc2Cl)C2=C(CS(=O)(=O)CCS2(=O)=O)N1` (stereo not shown) [Compound 58] and `CC1=C(C(=O)OCC(=O)OCCc2ccccc2)C(c2c(F)cccc2Cl)C2=C(CS(=O)(=O)CCS2(=O)=O)N1` (stereo not shown) [Compound 59] are within 1.5-fold of each other in IC50: 153 nM for the first, 154 nM for the second.

First: CC1=C(C(=O)OC2CCOC2=O)C(c2c(F)cccc2Cl)C2=C(CS(=O)(=O)CCS2(=O)=O)N1 (stereo not shown) [Compound 60]
Second: CC1=C(C(=O)OCCC2CCOC2=O)C(c2c(F)cccc2Cl)C2=C(CS(=O)(=O)CCS2(=O)=O)N1 (stereo not shown) [Compound 85]
The IC50 of the first is 9.7-fold lower: 174 nM for the first, 1690 nM for the second.

First: CC1=C(C(=O)OCCC2CCOC2=O)C(c2cccc(Cl)c2Cl)C2=C(CS(=O)(=O)CCS2(=O)=O)N1 (stereo not shown) [Compound 63]
Second: CC1=C(C(=O)OCCO)C(c2c(F)cccc2Cl)C2=C(CS(=O)(=O)CCS2(=O)=O)N1 (stereo not shown) [Compound 82]
The IC50 of the first is 5.2-fold lower: 194 nM for the first, 1000 nM for the second.

First: CC1=C(C(=O)OCCOC(=O)C(C)C)C(c2c(F)cccc2Cl)C2=C(CS(=O)(=O)CCS2(=O)=O)N1 (stereo not shown) [Compound 64]
Second: CC1=C(C(=O)OCCOC(=O)C(N)C(C)C)C(c2c(F)cccc2Cl)C2=C(CS(=O)(=O)CCS2(=O)=O)N1 (stereo not shown) [Compound 92]
The IC50 of the first is 26-fold lower: 220 nM for the first, 5800 nM for the second.

`CC1=C(C(=O)OCC(=O)OCc2ccccc2)C(c2c(F)cccc2Cl)C2=C(CS(=O)(=O)CCS2(=O)=O)N1` (stereo not shown) [Compound 66] and `CC1=C(C(=O)OCC(=O)Oc2ccccc2)C(c2c(F)cccc2Cl)C2=C(CS(=O)(=O)CCS2(=O)=O)N1` (stereo not shown) [Compound 67] are within 1.5-fold of each other in IC50: 279 nM for the first, 336 nM for the second.

First: CC(=O)OCCCOC(=O)C1=C(C)NC2=C(C1c1c(F)cccc1Cl)S(=O)(=O)CCS(=O)(=O)C2 (stereo not shown) [Compound 68]
Second: CC1=C(C(=O)OCCCO)C(c2c(F)cccc2Cl)C2=C(CS(=O)(=O)CCS2(=O)=O)N1 (stereo not shown) [Compound 83]
The IC50 of the first is 3.6-fold lower: 340 nM for the first, 1210 nM for the second. The first is the more potent here.

First: CC1=C(C(=O)OCC(=O)OC(C)(C)C)C(c2c(F)cccc2Cl)C2=C(CS(=O)(=O)CCS2(=O)=O)N1 (stereo not shown) [Compound 69, 7-methyl-9-[2-fluoro-6-chlorophenyl]-2,3,6,9-tetrahydro-1,1,4,4-tetraoxide 5H-1,4-Dithiepino[6,5-b]pyridine-8-carboxylic acid 2-(1,1-dimethylethyloxy)-2-oxoethyl ester]
Second: CC1=C(C(=O)OCCNC(=O)OC(C)(C)C)C(c2c(F)cccc2Cl)C2=C(CS(=O)(=O)CCS2(=O)=O)N1 (stereo not shown) [Compound 79, 5H-[1,4]dithiepino[6,5-b]pyridine-8-carboxylic acid, 9-(2-chloro-6-fluorophenyl)-2,3,6,9-tetrahydro-7-methyl-, 2-[[(1,1-dimethylethoxy)carbonyl]amino]ethyl ester, 1,1,4,4-tetraoxide]
The IC50 of the first is 2.2-fold lower: 356 nM for the first, 768 nM for the second.

First: CC1=C(C(=O)OCc2oc(=O)oc2C)C(c2c(F)cccc2Cl)C2=C(CS(=O)(=O)CCS2(=O)=O)N1 (stereo not shown) [Compound 73]
Second: CC1=C(C(=O)OCC(N)=O)C(c2c(F)cccc2Cl)C2=C(CS(=O)(=O)CCS2(=O)=O)N1 (stereo not shown) [Compound 93]
The IC50 of the first is 17-fold lower: 417 nM for the first, 6990 nM for the second. The first is the more potent here.

Compared with `CC1=C(C(=O)OCCOC(=O)c2ccncc2)C(c2c(F)cccc2Cl)C2=C(CS(=O)(=O)CCS2(=O)=O)N1` (stereo not shown) [Compound 78], `CC1=C(C(=O)OCCOC(=O)CN)C(c2c(F)cccc2Cl)C2=C(CS(=O)(=O)CCS2(=O)=O)N1` (stereo not shown) [Compound 97] is 200-fold higher in IC50: 760 nM for the first, 150000 nM for the second.

Compared with `CC1=C(C(=O)OCCOC(=O)CNC(=O)OC(C)(C)C)C(c2c(F)cccc2Cl)C2=C(CS(=O)(=O)CCS2(=O)=O)N1` (stereo not shown) [Compound 81], `CC1=C(C(=O)OCCOC(=O)C(C)(C)C)C(c2c(F)cccc2Cl)C2=C(CS(=O)(=O)CCS2(=O)=O)N1` (stereo not shown) [Compound 89] is 3.9-fold higher in IC50: 946 nM for the first, 3700 nM for the second.

Going from `CC1=C(C(=O)OCCOC(=O)CN(C)C)C(c2c(F)cccc2Cl)C2=C(CS(=O)(=O)CCS2(=O)=O)N1` (stereo not shown) [Compound 84] to `CC(=O)OCCCOC(=O)C1=C(C)NC2=C(C1c1c(F)cccc1Cl)S(=O)(=O)CCS(=O)(=O)C2` (stereo not shown) [Compound 86], the IC50 rises from 1230 nM to 2120 nM (1.7-fold).

First: CCN(CC)C(=O)COC(=O)C1=C(C)NC2=C(C1c1c(F)cccc1Cl)S(=O)(=O)CCS(=O)(=O)C2 (stereo not shown) [Compound 90]
Second: CC1=C(C(=O)OCC(=O)O)C(c2c(F)cccc2Cl)C2=C(CS(=O)(=O)CCS2(=O)=O)N1 (stereo not shown) [Compound 98, 7-methyl-9-[2-fluoro-6-chlorophenyl]-2,3,6,9-tetrahydro-1,1,4,4-tetraoxide 5H-1,4-Dithiepino[6,5-b]pyridine-8-carboxylic acid carboxymethyl ester]
The IC50 of the first is 75-fold lower: 4240 nM for the first, 316000 nM for the second.

Going from `CC1=C(C(=O)OCCN)C(c2c(F)cccc2Cl)C2=C(CS(=O)(=O)CCS2(=O)=O)N1` (stereo not shown) [Compound 91] to `CC1=C(C(=O)OCCOC(=O)C(N)CCCCN)C(c2c(F)cccc2Cl)C2=C(CS(=O)(=O)CCS2(=O)=O)N1` (stereo not shown) [Compound 96], the IC50 rises from 4840 nM to 51000 nM (11-fold).

`CC1=C(C(=O)OCCOC(=O)c2ccc(OC(C)C)cc2)C(c2c(F)cccc2Cl)C2=C(CS(=O)(=O)CCCS2(=O)=O)N1` (stereo not shown) [Compound 99, 2H,6H-[1,5]dithiocino[3,2-b]pyridine-9-carboxylic acid, 10-(2-chloro-6-fluorophenyl)-3,4,7,10-tetrahydro-8-methyl-, 2-[[4-(1-methylethoxy)benzoyl]oxy]ethyl ester, 1,1,5,5-tetraoxide] showed an IC50 of 40 nM.

The molecules below were run on trachealis muscle tissue (assay: Test for Inhibition of Calcium-Dependent Smooth Muscle Contraction (trachea)). Conditions: Canis lupus familiaris; dog tracheal rings, 50 mM KCl contraction.
Assay type: cell-based
Procedure: The trachea and the aorta from dogs sacrificed by excess KCl injection are stored overnight at 4° C. in oxygenated Krebs-Henseleit buffer. Tracheal rings, one cartilage segment wide (5-10 mm), are cut starting from the bronchial end. Rings of aorta tissue of the same width are also prepared. After cutting the cartilage, the trachealis muscle tissue and the aorta tissue are suspended in oxygenated Krebs-Henseleit buffer at 37° C. in a 25 ml tissue bath. After a 60-minute equilibration period, the tissues are challenged with 10 μM carbachol. After 5 minutes, the tissues are rinsed and allowed to rest 50 minutes. The tissues are then challenged with 50 mM KCl and, after 30 minutes, the contractions are quantitated. The tissues are then rinsed and re-equilibrated for 50 minutes. Test compounds are then added for 10 minutes, and the tissue is rechallenged with 50 mM KCl. After 30 minutes, the contraction is recorded. A percent inhibition of smooth muscle contraction can then be calculated.

`CC1=C(C(=O)OCCN(C)Cc2ccccc2)[C@@H](c2c(F)cccc2Cl)C2=C(CS(=O)(=O)CCS2(=O)=O)N1` (single isomer, unassigned) [Compound 2, 5H-1,4-Dithiepino[6,5-b]pyridine-8-carboxylic acid, 9-(2-chloro-6-fluorophenyl)-2,3,6,9-tetrahydro-7-methyl-2-[methyl(phenylmethyl)amino]ethyl ester 1,1,4,4-tetraoxide] and `CC1=C(C(=O)OCCN(C)Cc2ccccc2)C(c2c(F)cccc2Cl)C2=C(CS(=O)(=O)CCS2(=O)=O)N1` (stereo not shown) [Compound 1, 5H-1,4-Dithiepino[6,5-b]pyridine-8-carboxylic acid, 9-(2-chloro-6-fluorophenyl)-2,3,6,9-tetrahydro-7-methyl-2-[methyl(phenylmethyl)amino]ethyl ester 1,1,4,4-tetraoxide] are within 1.5-fold of each other in IC50: 660 nM for the first, 650 nM for the second.
